From PubChem BioAssay AID2060891 (Molecular Pharmacology Branch, DTP, NCI, 2025)

Test system: K98450-129-R-PDC complex spheroid growth, percent test/control
Assay: Anticancer human tumor K98450-129-R-PDC patient-derived colon adenocarcinoma cell line growth inhibition [RAS]
Settings: for IC50: curve of first compound; for viability, T/C: stronger effect = lower value
In short: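 Multi-cell-type spheroids: tumor cells plus HUVEC endothelial cells and mesenchymal stem cells. RAS-pathway inhibitors were combined with targeted agents, each dosed in half-log steps down from clinical Cmax, or from 10 microM when Cmax was unknown.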
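Also: spheroids exposed to agents for seven days before the viability readout.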
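For viability, T/C in this document: luminescence used as a proxy for viable cell amount.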

- IC50 (second compound 0.000949 µM): 190 nM
- IC50 (second compound 0.003 µM): 43.1 nM
- IC50 (second compound 0.00949 µM): < 31.6 nM
- IC50 (second compound 0.03 µM): < 31.6 nM
- IC50 (second compound 0.0949 µM): < 31.6 nM
- IC50 (second compound 0.3 µM): < 31.6 nM
Structure (SMILES): CC(=O)OC12COC1CC(O)C1(C)C(=O)C(O)C3=C(C)C(OC(=O)C(O)C(NC(=O)OC(C)(C)C)c4ccccc4)CC(O)(C(OC(=O)c4ccccc4)C21)C3(C)C (configuration not stated) + CCn1c(-c2cccnc2C(C)OC)c2c3cc(ccc31)N1CCOC(CC(NC(=O)C(C(C)C)N(C)C(=O)C3(F)CCN(C(=O)C#CC(C)(C)N(C)C)CC3)C(=O)N3CCCC(N3)C(=O)OCC(C)(C)C2)C1
- viability, T/C (second compound 0.000949 µM, first compound 0.0316 µM): 69.7%
- viability, T/C (second compound 0.000949 µM, first compound 0.1 µM): 66.1%
- viability, T/C (second compound 0.000949 µM, first compound 0.316 µM): 37.2%
- viability, T/C (second compound 0.000949 µM, first compound 1 µM): 24.6%
- viability, T/C (second compound 0.000949 µM, first compound 3.16 µM): 25.8%
- viability, T/C (second compound 0.000949 µM, first compound 10 µM): 24.8%
- viability, T/C (second compound 0.003 µM, first compound 0.0316 µM): 52.4%
- viability, T/C (second compound 0.003 µM, first compound 0.1 µM): 43.6%
- viability, T/C (second compound 0.003 µM, first compound 0.316 µM): 23.8%
- viability, T/C (second compound 0.003 µM, first compound 1 µM): 19.7%
- viability, T/C (second compound 0.003 µM, first compound 3.16 µM): 21.4%
- viability, T/C (second compound 0.003 µM, first compound 10 µM): 20.1%
- viability, T/C (second compound 0.00949 µM, first compound 0.0316 µM): 40.6%
- viability, T/C (second compound 0.00949 µM, first compound 0.1 µM): 25.5%
- viability, T/C (second compound 0.00949 µM, first compound 0.316 µM): 19.9%
- viability, T/C (second compound 0.00949 µM, first compound 1 µM): 18.7%
- viability, T/C (second compound 0.00949 µM, first compound 3.16 µM): 19.5%
- viability, T/C (second compound 0.00949 µM, first compound 10 µM): 18.1%
- viability, T/C (second compound 0.03 µM, first compound 0.0316 µM): 30.9%
- viability, T/C (second compound 0.03 µM, first compound 0.1 µM): 28.2%
- viability, T/C (second compound 0.03 µM, first compound 0.316 µM): 19.2%
- viability, T/C (second compound 0.03 µM, first compound 1 µM): 17.7%
- viability, T/C (second compound 0.03 µM, first compound 3.16 µM): 19.7%
- viability, T/C (second compound 0.03 µM, first compound 10 µM): 20.4%
- viability, T/C (second compound 0.0949 µM, first compound 0.0316 µM): 29.6%
- viability, T/C (second compound 0.0949 µM, first compound 0.1 µM): 26.9%
- viability, T/C (second compound 0.0949 µM, first compound 0.316 µM): 18.9%
- viability, T/C (second compound 0.0949 µM, first compound 1 µM): 19%
- viability, T/C (second compound 0.0949 µM, first compound 3.16 µM): 18.8%
- viability, T/C (second compound 0.0949 µM, first compound 10 µM): 18.4%
- viability, T/C (second compound 0.3 µM, first compound 0.0316 µM): 29.5%
- viability, T/C (second compound 0.3 µM, first compound 0.1 µM): 22.7%
- viability, T/C (second compound 0.3 µM, first compound 0.316 µM): 19.1%
- viability, T/C (second compound 0.3 µM, first compound 1 µM): 16.3%
- viability, T/C (second compound 0.3 µM, first compound 3.16 µM): 16.9%
- viability, T/C (second compound 0.3 µM, first compound 10 µM): 18.6%
